Where “and” joins values, the source holds several entries; their conditions need not be identical. Equal entries are not always repeated. Toxic doses and inconclusive results are not listed. Rule as the data show it: active = T/C of 150% or more; inactive = T/C below 125%.
Tested on: L1210 leukemia ip in BDF1 mice, survival T/C
Experiment: NCI In Vivo Anticancer Drug Screen. Data for tumor model L1210 Leukemia (intraperitoneal) in B6D2F1 (BDF1) mice
Details: endpoint: mean survival time, higher = longer survival
Procedure, shortened: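 Tumor was transplanted into mice, which were then dosed with test compound or vehicle alone. Survival was recorded for each group, and the treated figure was expressed relative to the control figure.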

[1] = dose: 100.0 mg/kg/injection, schedule: Q01DX009 (ip), vehicle: saline
[2] = dose: 200.0 mg/kg/injection, schedule: Q01DX009 (ip), vehicle: saline
[3] = dose: 400.0 mg/kg/injection, schedule: Q01DX009 (ip), vehicle: saline

Measured: T/C

NC(=O)CCC(NC(=O)OCc1ccccc1)C(=O)NCC(=O)O (stereo not given)
inactive: dose: 25.0 mg/kg/injection, schedule: Q04DX002 (ip), vehicle: Klucel (hydroxypropylcellulose) (HPC) 95 % of control | dose: 50.0 mg/kg/injection, schedule: Q04DX002 (ip), vehicle: Klucel (hydroxypropylcellulose) (HPC) 92 % of control | dose: 100.0 mg/kg/injection, schedule: Q04DX002 (ip), vehicle: Klucel (hydroxypropylcellulose) (HPC) 100 % of control

O=C(Nc1ccc(C(=O)Nc2ccc(C3=NCCCN3)cc2)cc1)Nc1ccc(C2=NCCCN2)cc1
inactive: dose: 0.94 mg/kg/injection, schedule: Q01DX Z (ip), vehicle: saline 103 % of control | dose: 1.88 mg/kg/injection, schedule: Q01DX Z (ip), vehicle: saline 117 % of control | dose: 18.8 mg/kg/injection, schedule: Q01DX004 (oral), vehicle: saline 94 % of control | dose: 37.5 mg/kg/injection, schedule: Q01DX009 (oral), vehicle: saline 91 % of control | dose: 75.0 mg/kg/injection, schedule: Q01DX009 (oral), vehicle: saline 93 % of control | dose: 150.0 mg/kg/injection, schedule: Q01DX004 (oral), vehicle: saline 93 % of control

O=C1C=CC(=O)C=C1
inactive: dose: 0.5 mg/kg/injection, schedule: Q01DX009 (ip), vehicle: saline 97 % of control | dose: 1.0 mg/kg/injection, schedule: Q01DX009 (ip), vehicle: saline 97 % of control | dose: 2.0 mg/kg/injection, schedule: Q01DX009 (ip), vehicle: saline 94 % of control | dose: 4.0 mg/kg/injection, schedule: Q01DX009 (ip), vehicle: saline 94 % of control

O=c1c2ccccc2[nH]c2ccc(-n3nnc4ccccc4c3=O)cc12
inactive: dose: 6.0 mg/kg/injection, schedule: Q04DX003 (ip), vehicle: saline 103 % of control | dose: 12.0 mg/kg/injection, schedule: Q04DX003 (ip), vehicle: saline 89 % of control | dose: 25.0 mg/kg/injection, schedule: Q04DX003 (ip), vehicle: saline 94 % of control

CC1(C)Cc2cc3cc(Cl)ccc3nc2-c2ccccc21
inactive: [1] 102 % of control | dose: 100.0 mg/kg/injection, schedule: Q04DX003 (ip), vehicle: acetone 98 % of control | [2] 89 % of control | dose: 200.0 mg/kg/injection, schedule: Q04DX003 (ip), vehicle: acetone 104 % of control | [3] 100 % of control | dose: 400.0 mg/kg/injection, schedule: Q04DX003 (ip), vehicle: acetone 94 % of control

O=C(O)c1ccc(Cn2ccc(=O)[nH]c2=O)cc1
inactive: dose: 100.0 mg/kg/injection, schedule: Q01DX001 (ip), vehicle: saline with Tween-80 95 % of control | dose: 200.0 mg/kg/injection, schedule: Q01DX001 (ip), vehicle: saline with Tween-80 107 % of control | dose: 400.0 mg/kg/injection, schedule: Q01DX001 (ip), vehicle: saline with Tween-80 101 % of control

Nc1[nH]c(=O)nc2nc(I)[nH]c12
inactive: dose: 100.0 mg/kg/injection, schedule: Q01DX001 (ip), vehicle: carboxymethylcellulose (CMC) 97 % of control | dose: 200.0 mg/kg/injection, schedule: Q01DX001 (ip), vehicle: carboxymethylcellulose (CMC) 100 % of control | dose: 400.0 mg/kg/injection, schedule: Q01DX001 (ip), vehicle: carboxymethylcellulose (CMC) 113 % of control

CC(C)(C)CC(C)(C)c1ccc(OCCOc2ccc(S(=O)(=O)O)cc2[N+](=O)[O-])cc1
inactive: [1] 105 % of control | [2] 105 % of control | [3] 100 % of control

Nc1ncn(C2CC(OC(=O)c3ccc(Cl)cc3)C(COC(=O)c3ccc(Cl)cc3)O2)c(=O)n1 (stereo not given)
inactive: dose: 100.0 mg/kg/injection, schedule: Q01DX005 (ip), vehicle: saline 110 % of control and 122 % of control | dose: 200.0 mg/kg/injection, schedule: Q01DX005 (ip), vehicle: saline 104 % of control

COc1ccc2c(c1)c(=NCCCCN=c1c3cc(OC)ccc3n(O)c3cc(Cl)ccc13)c1cc(Cl)ccc1n2O
inactive: dose: 12.5 mg/kg/injection, schedule: Q01DX009 (ip), vehicle: other 93 % of control | dose: 25.0 mg/kg/injection, schedule: Q01DX009 (ip), vehicle: other 93 % of control | dose: 50.0 mg/kg/injection, schedule: Q01DX009 (ip), vehicle: other 93 % of control and 101 % of control | dose: 100.0 mg/kg/injection, schedule: Q01DX009 (ip), vehicle: other 101 % of control | dose: 200.0 mg/kg/injection, schedule: Q01DX009 (ip), vehicle: other 101 % of control

O=S(=O)(O)CS(=O)(=O)O
inactive: dose: 5.0 mg/kg/injection, schedule: Q01DX001 (ip), vehicle: saline 101 % of control | dose: 10.0 mg/kg/injection, schedule: Q01DX001 (ip), vehicle: saline 100 % of control | dose: 20.0 mg/kg/injection, schedule: Q01DX001 (ip), vehicle: saline 97 % of control | dose: 40.0 mg/kg/injection, schedule: Q01DX001 (ip), vehicle: saline 101 % of control

CCCC1=C(CCC)C1C(=O)O
inactive: dose: 50.0 mg/kg/injection, schedule: Q01DX009 (ip), vehicle: Klucel (hydroxypropylcellulose) (HPC) 91 % of control | dose: 100.0 mg/kg/injection, schedule: Q01DX009 (ip), vehicle: Klucel (hydroxypropylcellulose) (HPC) 100 % of control | dose: 100.0 mg/kg/injection, schedule: Q04DX003 (ip), vehicle: Klucel (hydroxypropylcellulose) (HPC) 103 % of control | dose: 200.0 mg/kg/injection, schedule: Q01DX009 (ip), vehicle: Klucel (hydroxypropylcellulose) (HPC) 88 % of control | dose: 200.0 mg/kg/injection, schedule: Q04DX003 (ip), vehicle: Klucel (hydroxypropylcellulose) (HPC) 96 % of control

COC1OC(CCl)C(OC(=O)c2ccccc2)C(OC(=O)c2ccccc2)C1OS(=O)(=O)c1ccc(C)cc1 (stereo not given)
inactive: dose: 75.0 mg/kg/injection, schedule: Q04DX002 (ip), vehicle: Klucel (hydroxypropylcellulose) (HPC) 87 % of control | dose: 150.0 mg/kg/injection, schedule: Q04DX002 (ip), vehicle: Klucel (hydroxypropylcellulose) (HPC) 87 % of control | dose: 300.0 mg/kg/injection, schedule: Q04DX002 (ip), vehicle: Klucel (hydroxypropylcellulose) (HPC) 97 % of control

CCOC(=O)C(CCC(C)=O)C1=NC(C)(C)CC(C)O1 (stereo not given)
inactive: dose: 100.0 mg/kg/injection, schedule: Q01DX009 (ip), vehicle: saline sonified 102 % of control | dose: 200.0 mg/kg/injection, schedule: Q01DX009 (ip), vehicle: saline sonified 109 % of control | dose: 400.0 mg/kg/injection, schedule: Q01DX009 (ip), vehicle: saline sonified 98 % of control

O=C1CC(=O)N2CCCCC2N1 (stereo not given)
inactive: dose: 100.0 mg/kg/injection, schedule: Q01DX001 (ip), vehicle: alcohol 106 % of control | dose: 200.0 mg/kg/injection, schedule: Q01DX001 (ip), vehicle: alcohol 103 % of control | dose: 400.0 mg/kg/injection, schedule: Q01DX001 (ip), vehicle: alcohol 110 % of control

CC(C)(C)N(Cc1ccccc1)Cc1ccccc1
inactive: dose: 100.0 mg/kg/injection, schedule: Q04DX003 (ip), vehicle: saline with Tween-80 96 % of control | dose: 200.0 mg/kg/injection, schedule: Q04DX003 (ip), vehicle: saline with Tween-80 98 % of control | dose: 400.0 mg/kg/injection, schedule: Q04DX003 (ip), vehicle: saline with Tween-80 96 % of control

CC1C2CCC(C2)C1(C)C (stereo not given)
inactive: dose: 100.0 mg/kg/injection, schedule: Q01DX001 (ip), vehicle: Klucel (hydroxypropylcellulose) (HPC) 93 % of control | dose: 200.0 mg/kg/injection, schedule: Q01DX001 (ip), vehicle: Klucel (hydroxypropylcellulose) (HPC) 100 % of control | dose: 400.0 mg/kg/injection, schedule: Q01DX001 (ip), vehicle: Klucel (hydroxypropylcellulose) (HPC) 102 % of control

CCCCCCC/C(=N\N=C(N)N)c1ccc(O)cc1
inactive: dose: 15.0 mg/kg/injection, schedule: Q01DX Z (ip), vehicle: carboxymethylcellulose (CMC) 93 % of control | dose: 15.0 mg/kg/injection, schedule: Q01DX Z (oral), vehicle: carboxymethylcellulose (CMC) 117 % of control | dose: 30.0 mg/kg/injection, schedule: Q01DX Z (ip), vehicle: carboxymethylcellulose (CMC) 87 % of control | dose: 30.0 mg/kg/injection, schedule: Q01DX Z (oral), vehicle: carboxymethylcellulose (CMC) 106 % of control | dose: 60.0 mg/kg/injection, schedule: Q01DX Z (oral), vehicle: carboxymethylcellulose (CMC) 97 % of control and 103 % of control | dose: 120.0 mg/kg/injection, schedule: Q01DX Z (oral), vehicle: carboxymethylcellulose (CMC) 112 % of control and 90 % of control | dose: 240.0 mg/kg/injection, schedule: Q01DX Z (oral), vehicle: carboxymethylcellulose (CMC) 94 % of control and 95 % of control | dose: 480.0 mg/kg/injection, schedule: Q01DX Z (oral), vehicle: carboxymethylcellulose (CMC) 88 % of control and 90 % of control

— PubChem BioAssay AID248 (DTP/NCI, 2004)
